The record followed here is ChEMBL document CHEMBL1128051, “Radioprotective effects of -galactosylceramides” (1995).

Structures are written as SMILES. Where “and” joins values, the source holds several entries; their conditions need not be identical. Identical values can stand only once.

Assay type in all cases: functional
Experiment [1] relates to Mus musculus. Kind of experiment: Evaluation of Radioprotective effect of the intravenously administered compound (0.1 mg/kg on day 0,4,8) after irradiation on mice with 9 Gy of X-ray on day 20.
The test system of experiment [2] is Mus musculus. Kind of experiment: Evaluation of Radioprotective effect of the intravenously administered compound (0.1 mg/kg on day 0,4,8) after irradiation on mice with 9 Gy of X-ray on day 15.
Experiment [3] has as its system Mus musculus. Kind of experiment: Evaluation of Radioprotective effect of the intravenously administered compound (0.1 mg/kg on day 0,4,8) after irradiation on mice with 9 Gy of X-ray on day 25.
The test system of experiment [4] is Mus musculus. The experiment is described as follows: Evaluation of Radioprotective effect of the intravenously administered compound (0.1 mg/kg on day 0,4,8) after irradiation on mice with 9 Gy of X-ray on day 10.
Experiment [5] has as its system Mus musculus. The experiment is described as follows: Evaluation of Radioprotective effect of the intravenously administered compound (0.1 mg/kg on day 0,4,8) after irradiation on mice with 9 Gy of X-ray on day 35.

For the compound `CCCCCCCCCCCCCCCCCCCCCCCC(=O)NC(CO[C@H]1O[C@@H](CO)[C@H](O)[C@H](O)[C@@H]1O)[C@H](O)CCCCCCCCCCCCCCC` (single isomer, unassigned), the Survival in the experiment with Mus musculus [1] is recorded as 90%; in the experiment on Mus musculus [2], 100%; in the experiment with Mus musculus [3], 90%; in the experiment on Mus musculus [4] it was 100%; in the experiment with Mus musculus [5], 90%.

In the case of `CCCCCCCCCCCCCCCCCCCCCC[C@@H](O)C(=O)NC(CO[C@H]1O[C@@H](CO)[C@H](O)[C@H](O)[C@@H]1O)[C@H](O)CCCCCCCCCCCCCCC` (single isomer, unassigned), the Survival with Mus musculus [1] was 90%; with Mus musculus [2] it was 100%; in the experiment with Mus musculus [3] it was 90%; in the experiment on Mus musculus [4], 100%; in the experiment with Mus musculus [5] it was 90%.

Regarding `CCCCCCCCCCCCCCCCCCCCCCCC(=O)N[C@@H](CO[C@H]1O[C@@H](CO)[C@H](O)[C@H](O)[C@@H]1O)C(O)[C@H](O)CCCCCCCCCCCCCC` (single isomer, unassigned), the Survival in the experiment on Mus musculus [1] was 90%; in the experiment with Mus musculus [2], 100% and 90%; with Mus musculus [3] it was 90%; in the experiment with Mus musculus [4], 100%; in the experiment on Mus musculus [5] it was 90%.

Turning to `CCCCCCCCCCCCCCC[C@@H](O)[C@H](CO[C@H]1O[C@@H](CO)[C@H](O)[C@H](O)[C@@H]1O)NC(=O)CCCCCCCCCCCCC` (stereo in doubt; form 1), the Survival with Mus musculus [1] is 90%; in the experiment with Mus musculus [2], 100% and 90%; with Mus musculus [3], 90%; in the experiment with Mus musculus [4], 100%; in the experiment with Mus musculus [5], 90%.

For `CCCCCCCCCCCCCCCCCCCCCC[C@@H](O)C(=O)N[C@@H](CO[C@H]1O[C@@H](CO)[C@H](O)[C@H](O)[C@@H]1O)[C@H](O)[C@H](O)CCCCCCCCCCCCCC`, the Survival in the experiment on Mus musculus [1] is 80%; in the experiment with Mus musculus [2] it was 100%; with Mus musculus [3], 80%; with Mus musculus [4] it was 100%; with Mus musculus [5], 90% and 80%.

As for `CCCCCCCCCCCCCCC[C@@H](O)[C@H](CO[C@H]1O[C@@H](CO)[C@H](O)[C@H](O)[C@@H]1O)NC(=O)CCCCCCCCCCCCC` (stereo in doubt; form 2), the Survival with Mus musculus [1], in the experiment with Mus musculus [3] and in the experiment with Mus musculus [5] was 20% in each case.
